Results taken from patent publication US20150105252A1, “SUBSTITUTED PYRAZOLES AS HERBICIDES” (E I DU PONT DE NEMOURS AND COMPANY, priority 2013, published 2015).

Assays:
wheat = experiment: Test C preemergence; type: in vivo, Triticum aestivum; settings: for Wheat plant response rating: scale 0 to 100 (0 no effect, 100 complete control)
Outline: (§1)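 Postemergence values come from plants sprayed at the 1- to 4-leaf stage (2–18 cm) in peat moss–vermiculite medium; preemergence values from seeds treated in a loam–sand blend. Both evaluated visually against controls after 13–15 greenhouse days, scale 0–100.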

oilseed rape = experiment: Test C preemergence; type: in vivo, Brassica napus; settings: for Oilseed Rape plant response rating: scale 0 to 100 (0 no effect, 100 complete control)
Outline: as §1

soybean = experiment: Test C preemergence; type: in vivo, Glycine max; settings: for Soybean plant response rating: scale 0 to 100 (0 no effect, 100 complete control)
Outline: as §1

velvetleaf [1] = experiment: Test C preemergence; type: in vivo, Abutilon theophrasti; settings: for Velvetleaf plant response rating: scale 0 to 100 (0 no effect, 100 complete control)
Outline: as §1

johnsongrass [2] = experiment: Test C preemergence; type: in vivo, Sorghum halepense; settings: for Johnsongrass plant response rating: scale 0 to 100 (0 no effect, 100 complete control)
Outline: as §1

chickweed = experiment: Test C postemergence; type: in vivo, Stellaria media
Outline: as §1

blackgrass = experiment: Test C postemergence; type: in vivo, Alopecurus myosuroides
Outline: as §1

velvetleaf [3] = experiment: Test C postemergence; type: in vivo, Abutilon theophrasti
Outline: as §1

morningglory = experiment: Test C postemergence; type: in vivo, Ipomoea coccinea
Outline: as §1

galium = experiment: Test C preemergence; type: in vivo, Galium aparine
Outline: as §1

barnyardgrass = experiment: Test C preemergence; type: in vivo, Echinochloa crus-galli; settings: for Barnyardgrass plant response rating: scale 0 to 100 (0 no effect, 100 complete control)
Outline: as §1

lambsquarters = experiment: Test C preemergence; type: in vivo, Chenopodium album; settings: for Lambsquarters plant response rating: scale 0 to 100 (0 no effect, 100 complete control)
Outline: as §1

johnsongrass [4] = experiment: Test C postemergence; type: in vivo, Sorghum halepense
Outline: as §1

crabgrass, large = experiment: Test C postemergence; type: in vivo, Digitaria sanguinalis
Outline: as §1

[5] = preemergence, 31 g ai/ha, visual rating, 13 to 15 days
[6] = preemergence, 62 g ai/ha, 13 to 15 days
[7] = preemergence, 125 g ai/ha, 13 to 15 days, scale 0 to 100, 0 = no effect, 100 = complete control
[8] = Postemergence, 31 g ai/ha, visually evaluated after 13 to 15 days
[9] = postemergence, 62 g ai/ha, scale 0 to 100
[10] = postemergence, 250 g ai/ha, scale 0 to 100 (0 no effect, 100 complete control)
[11] = postemergence, 125 g ai/ha, scale 0 to 100, 0 no effect, 100 complete control

## CCOc1cc(C(=O)NC2CC2)nn1Cc1ccnc(OC(F)F)c1 [Compound 133]
wheat; Preemergence, 250 g ai/ha
  Plant response rating (scale of 0 to 100), Wheat: 90
wheat; [5]
  Wheat plant response rating: 0
wheat; [6]
  Wheat plant response rating: 45
wheat; [7]
  Plant response rating, Wheat: 90
Oilseed rape; Preemergence, 250 g ai/ha
  Plant response rating (scale of 0 to 100), Oilseed Rape: 100
Oilseed rape; [5]
  Oilseed Rape plant response rating: 60
Oilseed rape; [6]
  Oilseed Rape plant response rating: 100
Oilseed rape; [7]
  Plant response rating, Oilseed Rape: 100
soybean; Preemergence, 250 g ai/ha
  Plant response rating (scale of 0 to 100), Soybean: 95
soybean; [5]
  Soybean plant response rating: 50
soybean; [6]
  Soybean plant response rating: 40
soybean; [7]
  Plant response rating, Soybean: 85
Velvetleaf [1]; Preemergence, 250 g ai/ha
  Plant response rating (scale of 0 to 100), Velvetleaf: 100
Velvetleaf [1]; [5]
  Velvetleaf plant response rating: 35
Velvetleaf [1]; [6]
  Velvetleaf plant response rating: 55
Velvetleaf [1]; [7]
  Plant response rating, Velvetleaf: 100
Johnsongrass [2]; Preemergence, 250 g ai/ha
  Plant response rating (scale of 0 to 100), Johnsongrass: 98
Johnsongrass [2]; [5]
  Johnsongrass plant response rating: 40
Johnsongrass [2]; [6]
  Johnsongrass plant response rating: 85
Johnsongrass [2]; [7]
  Plant response rating, Johnsongrass: 90
chickweed; [8]
  Plant response rating (scale of 0 to 100 where 0 is no effect and 100 is complete control), Chickweed: 50
chickweed; [9]
  Chickweed plant response rating: 60
chickweed; [10]
  Plant response rating, Chickweed: 85
chickweed; [11]
  Plant response rating, Chickweed: 70
blackgrass; [8]
  Plant response rating (scale of 0 to 100 where 0 is no effect and 100 is complete control), Blackgrass: 5
blackgrass; [9]
  Blackgrass plant response rating: 5
blackgrass; [10]
  Plant response rating, Blackgrass: 10
blackgrass; [11]
  Plant response rating, Blackgrass: 10
Velvetleaf [3]; [8]
  Plant response rating (scale of 0 to 100 where 0 is no effect and 100 is complete control), Velvetleaf: 25
Velvetleaf [3]; [9]
  Velvetleaf plant response rating: 45
Velvetleaf [3]; [10]
  Plant response rating, Velvetleaf: 70
Velvetleaf [3]; [11]
  Plant response rating, Velvetleaf: 35
morningglory; [8]
  Plant response rating (scale of 0 to 100 where 0 is no effect and 100 is complete control), Morningglory: 75
morningglory; [9]
  Morningglory plant response rating: 90
morningglory; [10]
  Plant response rating, Morningglory: 100
morningglory; [11]
  Plant response rating, Morningglory: 90
galium; Preemergence, 250 g ai/ha
  Plant response rating (scale of 0 to 100), Galium: 100
galium; preemergence, 62 g ai/ha, scale 0 to 100 (0 no effect, 100 complete control), 13 to 15 days
  Galium plant response rating: 95
galium; [7]
  Plant response rating, Galium: 98
barnyardgrass; Preemergence, 250 g ai/ha
  Plant response rating (scale of 0 to 100), Barnyardgrass: 100
barnyardgrass; preemergence, 31 g ai/ha, 13 to 15 days
  Barnyardgrass plant response rating: 65
barnyardgrass; [6]
  Barnyardgrass plant response rating: 60
barnyardgrass; [7]
  Plant response rating, Barnyardgrass: 100
lambsquarters; Preemergence, 250 g ai/ha
  Plant response rating (scale of 0 to 100), Lambsquarters: 100
lambsquarters; [5]
  Lambsquarters plant response rating: 75
lambsquarters; [6]
  Lambsquarters plant response rating: 100
lambsquarters; [7]
  Plant response rating, Lambsquarters: 100
Johnsongrass [4]; [8]
  Plant response rating (scale of 0 to 100 where 0 is no effect and 100 is complete control), Johnsongrass: 5
Johnsongrass [4]; [9]
  Johnsongrass plant response rating: 5
Johnsongrass [4]; [10]
  Plant response rating, Johnsongrass: 5
Johnsongrass [4]; [11]
  Plant response rating, Johnsongrass: 5
crabgrass, large; [8]
  Plant response rating (scale of 0 to 100 where 0 is no effect and 100 is complete control), Crabgrass, Large: 5
crabgrass, large; [9]
  Crabgrass, Large plant response rating: 5
crabgrass, large; [10]
  Plant response rating, Crabgrass, Large: 35
crabgrass, large; [11]
  Plant response rating, Crabgrass, Large: 10
